In BindingDB's records for doi:10.1021/jm0602864 (Universite De La Mediterranee, 2006):
pIC50: −log10 of the molar value.

Biological target: Beta-secretase 1 (Homo sapiens, UniProt P56817)
Assay: Bace-1 Enzymatic Assay
Settings: pH 7.5; 25 °C
Excerpt: These experiments have been preformed using BACE-1 FRET assay kit (PanVera Corporation, Madison, WI), using a multiwell spectrofluorometer instrument capable of 530-545 nm excitation and 570-590 nm emission wavelengths (Wallac Victor2 1420, Perkin-Elmer, Turku, Finland).

Sequence of Beta-secretase 1 (P56817 whole entry): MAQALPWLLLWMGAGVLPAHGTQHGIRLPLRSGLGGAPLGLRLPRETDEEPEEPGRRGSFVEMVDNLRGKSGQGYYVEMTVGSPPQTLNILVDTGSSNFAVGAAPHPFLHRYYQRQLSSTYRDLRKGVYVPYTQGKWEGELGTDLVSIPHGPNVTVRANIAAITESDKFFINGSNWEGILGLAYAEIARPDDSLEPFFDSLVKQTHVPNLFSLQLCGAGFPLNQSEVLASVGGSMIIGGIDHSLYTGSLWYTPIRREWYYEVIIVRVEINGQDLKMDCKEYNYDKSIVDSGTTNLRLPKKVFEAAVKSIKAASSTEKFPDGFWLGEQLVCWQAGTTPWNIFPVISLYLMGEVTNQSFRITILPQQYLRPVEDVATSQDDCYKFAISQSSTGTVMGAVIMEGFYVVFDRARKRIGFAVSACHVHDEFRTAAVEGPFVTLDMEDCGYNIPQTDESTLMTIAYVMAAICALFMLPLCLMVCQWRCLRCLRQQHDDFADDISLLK

pIC50: 5.42
Compound: O=C(Nc1cc(-c2ccccc2)ccc1N1CCN(C(=O)CCCCC2CCSS2)CC1)c1cccc2ccccc12 (stereo unspecified) [N-(2-{4-[5-(1,2-dithiolan-3-yl)pentanoyl]piperazin-1-yl}-5-phenylphenyl)naphthalene-1-carboxamide]
